Measurements taken from US7205123B2, “Recombinant materials for carotenoid production” (DSM IP Assets B.V., priority 1995, dated 2007).

Columns and labels:
[1] = system: Phaffia transformant G418-1; assay: Survival of Phaffia transformant G418-1 on YepD agar with increasing G418; format: cell-based, Phaffia rhodozyma
Method: To determine the expression of the G418 resistance gene in pGB-Ph9, transformant G418-1 (EP 0 590 707 A1) was exposed to increasing concentrations of G418.
Two dilutions of a G418-1 culture were plated onto YepD agar containing 0–1000 μg/ml G418 (Table 1).

[2] = system: Phaffia (CBS6938); assay: Survival of untransformed Phaffia on YepD agar with increasing G418; format: cell-based, Phaffia rhodozyma; settings: Dil. 0 (OD600 = 5)

With `CN[C@@H]1[C@@H](O)[C@@H](O[C@@H]2[C@@H](O)[C@H](O[C@H]3O[C@H]([C@@H](C)O)[C@@H](O)[C@H](O)[C@H]3N)[C@@H](N)C[C@H]2N)OC[C@]1(C)O` [G418] the “Survival on YepD agar medium” value ([1]; G418 200 μg/ml, Dil. 10^-4 (OD600 = 7)) was greater than 300, the “Survival on YepD agar medium” value ([1]; G418 200 μg/ml, Dil. 10^-5 (OD600 = 7)) was 70 and the “Survival on YepD agar medium” value ([1]; G418 300 μg/ml, Dil. 10^-4 (OD600 = 7)) was greater than 300. The “Survival on YepD agar medium” value ([1]; G418 300 μg/ml, Dil. 10^-5 (OD600 = 7)) was 61, the “Survival on YepD agar medium” value ([1]; G418 400 μg/ml, Dil. 10^-4 (OD600 = 7)) was 212 and the “Survival on YepD agar medium” value ([1]; G418 400 μg/ml, Dil. 10^-5 (OD600 = 7)) was 13. The “Survival on YepD agar medium” value ([1]; G418 500 μg/ml, Dil. 10^-4 (OD600 = 7)) was 10, the “Survival on YepD agar medium” value ([1]; G418 500 μg/ml, Dil. 10^-5 (OD600 = 7)) was 2 and the plated cells survived ([1]; G418 600 μg/ml) was “less than 1%”. For the same compound, the “Survival on YepD agar medium” value ([1]; G418 600 μg/ml, Dil. 10^-4 (OD600 = 7)) was 0, the “Survival on YepD agar medium” value ([1]; G418 600 μg/ml, Dil. 10^-5 (OD600 = 7)) was 0 and the “Survival on YepD agar medium” value ([1]; G418 700 μg/ml, Dil. 10^-4 (OD600 = 7)) was 0. For the same compound, the “Survival on YepD agar medium” value ([1]; G418 700 μg/ml, Dil. 10^-5 (OD600 = 7)) was 0, the “Survival on YepD agar medium” value ([1]; G418 800 μg/ml, Dil. 10^-4 (OD600 = 7)) was 0 and the “Survival on YepD agar medium” value ([1]; G418 800 μg/ml, Dil. 10^-5 (OD600 = 7)) was 0. For the same compound, the “Survival on YepD agar medium” value ([1]; G418 900 μg/ml, Dil. 10^-4 (OD600 = 7)) was 0, the “Survival on YepD agar medium” value ([1]; G418 900 μg/ml, Dil. 10^-5 (OD600 = 7)) was 0 and the “Survival on YepD agar medium” value ([1]; G418 1000 μg/ml, Dil. 10^-4 (OD600 = 7)) was 0. The “Survival on YepD agar medium” value ([1]; G418 1000 μg/ml, Dil. 10^-5 (OD600 = 7)) was 0, the “Survival on YepD agar medium” value ([2]; G418 200 μg/ml) was 0 and the “Survival on YepD agar medium” value ([2]; G418 300 μg/ml) was 0. For the same compound, the “Survival on YepD agar medium” value ([2]; G418 400 μg/ml) was 0, the “Survival on YepD agar medium” value ([2]; G418 500 μg/ml) was 0 and the “Survival on YepD agar medium” value ([2]; G418 600 μg/ml) was 0. For the same compound, the “Survival on YepD agar medium” value ([2]; G418 700 μg/ml) was 0, the “Survival on YepD agar medium” value ([2]; G418 800 μg/ml) was 0 and the “Survival on YepD agar medium” value ([2]; G418 900 μg/ml) was 0. For the same compound, the “Survival on YepD agar medium” value ([2]; G418 1000 μg/ml) was 0.
